Source: patent US10196359B2, “2-alkyloxy benzene formyl arylamine compound and pharmaceutical use thereof” (FUDAN UNIVERSITY, priority 2014, dated 2019)
Like-named read-outs stand apart in the source and are kept apart here.

Biological target: T1, Sphingomyelin Synthase 2 (SMS2) (Homo sapiens, UniProt Q8NHU3)
T1 construct: made in house; used as homogenate
T1 sequence (Q8NHU3 1-365): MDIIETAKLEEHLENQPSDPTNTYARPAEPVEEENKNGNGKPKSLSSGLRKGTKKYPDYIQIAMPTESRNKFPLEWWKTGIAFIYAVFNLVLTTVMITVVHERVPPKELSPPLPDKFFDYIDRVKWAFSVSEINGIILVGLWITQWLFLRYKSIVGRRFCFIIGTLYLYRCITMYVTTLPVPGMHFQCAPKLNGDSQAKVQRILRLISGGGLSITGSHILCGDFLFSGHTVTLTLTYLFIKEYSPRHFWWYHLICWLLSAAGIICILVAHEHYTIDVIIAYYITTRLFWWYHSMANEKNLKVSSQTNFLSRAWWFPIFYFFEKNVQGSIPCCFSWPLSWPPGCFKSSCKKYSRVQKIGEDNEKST
Test: In vitro inhibition of sphingomyelin synthase 2, HPLC fluorogenic quantitative detecting method (C6-NBD-ceramide to C6-NBD-SM, SMS2 high-expressed insect cell homogenate)
Format: biochemical
Details: for IC50: read-out: SMS2 Median Inhibitory Concentration IC50
Excerpt: The second aim of the present invention is to show the use of 2-alkoxy benzene formyl arylamines in preparing SMS small-molecule inhibitors. This invention evaluate SMS inhibitory activity of 2-alkoxy benzene formyl arylamines as scheme I through HPLC fluorogenic quantitative detecting method reported (Xiaodong Deng; Hong Sun; et al. Analytical Letters, 2012, 45:12, 1581-1589), which can make it possible to calculate the catalytic activity difference of SMS treated with inhibitors or not through content changes of NBD-ceramide and NBD-sphingomyelin.
9. The organic solvents were purchased from Shanghai Sinopharm Reagent Company; methanol is of HPLC grade; water is ultrapure water filtrated by Milli-Q pump and deionized and ultrafiltrated by 0.22 μm ultrafiltration membrane. Other biological supplies are purchased in domestic companies. 10. Preparation of SMS homogenate extraction buffer (Buffer1): (50 mM Tris hydrochloride, pH 7.4, 5% anhydrous sucrose, 1 mM ethylenediaminetetraacetic acid) 1.2114 g tris(hydroxymethyl)aminomethane hydrochloride (Tris-HCl) was dissolved in 100 ml distilled water. Then 84 ml 0.1 mol/L hydrochloric acid was added. Constant volume to 200 ml. Finally, 10 g sucrose and 58.45 mg EDTA were dissolved in the mixture. 11. Preparation of SMS test buffer […]: (100 mM Hepes, 30 mM MnCl2, 3% fatty acid free BSA): 1.1916 g 4-(2-hydroxyethyl)-1-peperazineethanesulfonic acid (Hepes), 0.2969 g MnCl2.4H2O and 0.3 g fatty acid free bovine serum albumin were dissolved in distilled water then constant volume to 50 ml. 12. Preparation of under tested compound solution: To each accurate weighed compound for 1˜2 mg, an appropriate amount of DMSO was added to formulate a stock solution of 6 mM precisely. To a certain volume of the DMSO stock solution of the test compound, the appropriate volume of DMSO was added to dilute the solution to the desired concentration. 13. SMS2 high-expressed insect cell homogenate was prepared by Xu Yanhui group from Institutes of Biomedical Sciences, Fudan University. Part 1 Activity Assay for Inhibition of 2-Alkoxy-Benzoyl Aromatic Amines to Sphingomyelin Synthase 2
250 μL tri-distilled water, 30 μL Buffer2, 4 μL SMS2 high-expressed insect cell homogenate (total protein content is 0.5 μg/μL) and 10 μL DMSO or DMSO solution of under tested compound were added to 1.5 mL eppendorf tube, vortex mixed for 30 seconds and then incubated in a 37° C. water bath for 0.5 h. 3 μL ethanol solution of DMPC (40 mM) and 3 μL ethanol solution of C6-NBD-Ceramide (1.16 mM) were added, vortex mixed for 30 seconds, and then incubate in a 37° C. water bath for 2.0 hours. To it 600 μL anhydrous ethanol was added vortex mixed for 1 minute and centrifuged 10 minutes in 10000 rpm and 600 μL supernatant was taken out and stored at 4° C. for HPLC analysis.
Using the same HPLC fluorogenic quantitative detecting method as reference (Xiaodong Deng; Hong Sun; et al. Analytical Letters, 2012, 45:12, 1581-1589) to analysize samples obtained above. Analysize and record peak areas of C6-NBD-SM (Asm) and C6-NBD-Ceramide (Acer) of each sample from blank group, positive control group (compound D2) and under tested compound group. The data were parallelly determined for 3 times. Calculate inhibition rate from the formula below: […]
The DMSO stock solution of under tested compound (6 mM) was diluted stepwise into five concentration gradient. 10 μL solution of each concentration was added into the trial system to prepare samples with the method mentioned in the first step of application case 12. The Asm values of the five concentration solution of tested compound were measured, and the inhibition rate under the five concentration were calculated and fitted to obtain median inhibitory concentration (IC50). Each compound was measured three parallel groups. SMS2 median inhibitory concentration of Scheme I-1˜I-60 are listed below in Table 1: […]

[1] = at 10 μM, read-out: inhibition rate
[2] = five concentrations, three parallel groups, experimental value
[3] = at 50 μM, read-out: inhibition rate

Row | Molecule | inhibition at 10 µM [1] [%] | IC50 [2] [nM] | also measured
1 | O=C(Nc1cccnc1)c1ccccc1OCc1cccc(C(F)(F)F)c1 [Scheme I-41, 2-((3-trifluoromethyl)benzyloxy)-N-(pyridin-3-yl) benzamide] | 10 | > 100000 | –
2 | Cc1c(Cl)cccc1COc1ccccc1C(=O)Nc1cccnc1 [Scheme I-44, 2-((3-chloro-2-methyl)benzyloxy)-N-(pyridin-3-yl) benzamide] | – | 3800 | inhibition rate (at 5 μM): 47.0%
3 | CCOC(=O)c1ccc(COc2ccccc2C(=O)Nc2cccnc2)cc1 [Scheme I-19, 4-((2-(pyridin-3-ylcarbamoyl)phenoxy)methyl) benzene carboxylic acid ethyl ester] | 2.9 | > 100000 | –
4 | O=C(Nc1cccnc1)c1ccccc1OCc1cccc(F)c1 [Scheme I-2, 2-(3-fluoro-benzyloxy)-N-(pyridin-3-yl) benzamide] | – | – | IC50: 1600 nM; inhibition at 5 µM (read-out: inhibition rate): 69.3%
5 | 2-((2-ethoxy) benzyloxy)-N-(pyridin-3-yl) benzamide [Scheme I-30] | – | 1200 | inhibition rate (at 10 μM): 86.3%
6 | 2-((2-nitro) benzyloxy)-N-(pyridin-3-yl) benzamide [Scheme I-12] | – | > 50000 | inhibition rate (at 50 μM): 35.5%
7 | O=C(Nc1cccnc1)c1ccccc1OCc1ccccc1OCCCCCCCl [Scheme I-36, 2-(2-(6-Chloro-hexyloxy)benzyloxy)-N-(pyridin-3-yl) benzamide] | 91.5 | 500 | –
8 | O=C(Nc1cccnc1)c1ccc(Cl)cc1OCc1ccccc1Cl [Scheme I-56, 4-Chloro-2-(2-chloro-benzyloxy)-N-(pyridin-3-yl) benzamide] | 20 | > 50000 | –
9 | COCCOc1ccc(Cl)cc1COc1ccccc1C(=O)Nc1cccnc1 [Scheme I-50, 2-((5-chloro-2-(2-methoxyethoxy))benzyloxy)-N-(pyridin-3-yl) benzamide] | 54.2 | 11600 | –
10 | O=C(Nc1ccccn1)c1ccccc1OCc1ccccc1 [Scheme I-52, 2-benzyloxy-N-(pyridin-2-yl) benzamide] | – | 11700 | inhibition at 100 µM (at 100 μM, read-out: inhibition rate): 60.1%
11 | 2-((2,6-dimethyl) benzyloxy)-N-(pyridin-3-yl) benzamide [Scheme I-29] | – | 900 | inhibition rate (at 10 μM): 88.8%
12 | 2-(2-cyano-benzyloxy)-N-(pyridin-3-yl) benzamide [Scheme I-6] | – | 31800 | inhibition rate (at 50 μM): 50.0%
13 | COc1ccccc1COc1ccccc1C(=O)Nc1cccnc1 [Scheme I-24, 2-((2-methoxy)benzyloxy)-N-(pyridin-3-yl) benzamide] | 89.4 | 800 | –
14 | 2-((2-ethyl) benzyloxy)-N-(pyridin-3-yl) benzamide [Scheme I-27] | – | 900 | inhibition rate (at 5 μM): 78.4%
15 | O=C(Nc1cccnc1)c1ccccc1OCc1ccccc1OCCCCCCl [Scheme I-35, 2-(2-(5-chloro-pentoxy)benzyloxy)-N-(pyridin-3-yl) benzamide] | 91.3 | 700 | –
16 | COc1ccc(COc2ccccc2C(=O)Nc2cccnc2)cc1 [Scheme I-5, 2-((4-methoxy)benzyloxy)-N-(pyridin-3-yl) benzamide] | – | > 100000 | inhibition at 50 µM [3]: 23%
17 | Cc1ccccc1COc1ccccc1C(=O)Nc1cccnc1 [Scheme I-11, 2-((2-methyl)benzyloxy)-N-(pyridin-3-yl) benzamide] | – | – | IC50: 1500 nM; inhibition at 5 µM (read-out: inhibition rate): 71.3%
18 | 2-((4-nitro) benzyloxy)-N-(pyridin-3-yl) benzamide [Scheme I-13] | – | > 100000 | inhibition rate (at 50 μM): 11.8%

Row | Molecule | inhibition at 10 µM [1] [%] | IC50 [2] [nM] | also measured
19 | O=C(Nc1cccnc1)c1ccccc1OCc1cccc(Cl)c1 [Scheme I-7, 2-(3-chloro-benzyloxy)-N-(pyridin-3-yl) benzamide] | – | – | IC50: 1400 nM; inhibition at 5 µM (read-out: inhibition rate): 70.6%
20 | O=C(Nc1cccnc1)c1cc([N+](=O)[O-])ccc1OCc1ccccc1Cl [Scheme I-57, 2-(2-chloro-benzyloxy)-5-nitro-N-(pyridin-3-yl) benzamide] | 1.7 | > 100000 | –
21 | O=C(Nc1cccnc1)c1cc(Cl)ccc1OCc1c(Cl)cccc1Cl [Scheme I-54, 5-chloro-2-((2,6-dichlorophenyl)benzyloxy)-N-(pyridin-3-yl) benzamide] | 42.3 | > 25000 | –
22 | 2-((2-methoxy-5-chloro) benzyloxy)-N-(pyridin-3-yl) benzamide [Scheme I-31] | – | 700 | inhibition rate (at 10 μM): 92.4%
23 | 2-((2,5-dimethoxy) benzyloxy)-N-(pyridin-3-yl) benzamide [Scheme I-25] | – | 2800 | inhibition rate (at 10 μM): 78.9%
24 | O=C(Nc1cccnc1)c1ccccc1OCc1c(F)cccc1Cl [Scheme I-32, 2-((2-chloro-6-fluoro)benzyloxy)-N-(pyridin-3-yl) benzamide] | – | – | IC50: 1500 nM; inhibition at 10 µM (read-out: inhibition rate): 82.3%
25 | Cc1ccc(Cl)cc1COc1ccccc1C(=O)Nc1cccnc1 [Scheme I-43, 2-((5-chloro-2-methyl)benzyloxy)-N-(pyridin-3-yl) benzamide] | – | 1100 | inhibition rate (at 5 μM): 74.8%
26 | CCOC(=O)COc1cccc(COc2ccccc2C(=O)Nc2cccnc2)c1 [Scheme I-22] | 15.3 | > 100000 | –
27 | O=C(Nc1cccnc1)c1ccc(Br)cc1OCc1ccccc1Cl [Scheme I-58, 4-bromo-2-(2-chloro-benzyloxy)-N-(pyridin-3-yl) benzamide] | 19.4 | > 50000 | –
28 | O=C(O)c1ccc(COc2ccccc2C(=O)Nc2cccnc2)cc1 [Scheme I-46, 4-((2-(pyridin-3-ylcarbamoyl)phenoxy)methyl) benzoic acid] | 2.6 | > 100000 | –
29 | 2-((2-benzyloxy) benzyloxy)-N-(pyridin-3-yl) benzamide [Scheme I-26] | – | 2200 | inhibition rate (at 10 μM): 76.9%
30 | 2-(3-bromo-benzyloxy)-N-(pyridin-3-yl) benzamide [Scheme I-8] | – | > 50000 | inhibition rate (at 50 μM): 67.1%
31 | O=C(Nc1cccnc1)c1ccccc1OCc1cccc([N+](=O)[O-])c1 [Scheme I-3, 2-(3-nitro-benzyloxy)-N-(pyridin-3-yl) benzamide] | – | > 50000 | inhibition at 50 µM [3]: 64.6%
32 | 2-((4-cyano) benzyloxy)-N-(pyridin-3-yl) benzamide [Scheme I-15] | – | > 100000 | inhibition rate (at 50 μM): 15.0%
33 | O=C(Nc1cccnc1)c1ccccc1OCc1ccccc1F [Scheme I-1, 2-(2-fluoro-benzyloxy)-N-(pyridin-3-yl) benzamide] | – | – | IC50: 3500 nM; inhibition at 5 µM (read-out: inhibition rate): 53.8%
34 | 2-(3-cyano-benzyloxy)-N-(pyridin-3-yl) benzamide [Scheme I-4] | – | 60700 | inhibition rate (at 50 μM): 66.0%
35 | O=C(Nc1cccnc1)c1cc(Cl)ccc1OCc1cc(F)ccc1Cl [Scheme I-55, 5-chloro-2-((2-chloro-5-fluoro)benzyloxy)-N-(pyridin-3-yl) benzamide] | 31.7 | > 25000 | –
